According to patent US20070254891A1, “Crystalline forms of 4-(2-fluorophenyl)-6-methyl-2-(piperazin-1-yl)thieno[2,3-d]pyrimidine” (Dynogen Pharmaceuticals, Inc., priority 2006, published 2007):

Key:
[1] = test system: acetic acid-induced colonic hypersensitivity; assay: Visceromotor response to colorectal distension in acetic acid-sensitized rats
Experimental: The visceromotor behavioral response to colorectal distension was measured by counting the number of abdominal contractions recorded by a strain gauge sutured onto the abdominal musculature as described in Gunter et al., Physiol. […] A 5 cm latex balloon catheter inserted via the anal canal into the colon was used for colorectal distensions. Constant pressure tonic distensions were performed in a graded manner (15, 30 or 60 mmHg) and were maintained for a period of 10 min and the numbers of abdominal muscle contractions were recorded to measure the level of colonic sensation. A 10 min recovery was allowed between distensions.
J. Physiol. […] In the present study, a low concentration of acetic acid (1.5 ml, 0.6%) was administered intracolonically to sensitize the colon without causing histological damage to the colonic mucosa as described in previous studies (Gunter et al., supra).
Injection volume was 0.2 mL using 100% propylene glycol as the vehicle. Three consecutive colorectal distensions at 15, 30 or 60 mmHg applied at 10-min intervals were recorded. Visceromotor responses were evaluated as the number of abdominal muscle contractions recorded during the 10-min periods of colorectal distension.
Adult male rats were used in the study. […] Specifically, rats were anesthetized with Isoflurane (2%) and were instrumented with a strain gauge force transducer for recording of abdominal muscle contractions. A latex balloon and catheter were inserted 11 cm into the colon. The animals were allowed a 30-min period to completely recover from the anesthesia and were then subjected to intracolonic infusion of acetic acid (1.5 mL, 0.6%). An additional 30-min period was allowed for sensitization of the colon. […] The protocol for colorectal distension was initiated 30-min post drug administration. After a basal reading of the number of abdominal contractions with the balloon inserted but not distended, three consecutive 10-min lasting colorectal distensions at 15, 30, and 60 mmHg were applied at 10-min intervals. Colorectal sensitivity was evaluated by counting the number of reflex abdominal contractions (i.e. the visceromotor response) observed within each distension period.
The visceromotor behavioral response to colorectal distension was measured by counting the number of abdominal contractions recorded by a strain gauge sutured onto the abdominal musculature as previously described Gunter et al., referenced above. Colorectal distensions were carried out utilizing a 5 cm latex balloon catheter inserted into the colon via the anal canal. Constant pressure tonic distensions were performed in a graded manner, i.e., the pressure was increased to the desired level of 15, 30, or 60 mmHg and then maintained for a period of 10 minutes during which the number of abdominal contractions were recorded to measure the level of colonic sensation. Ten minute recovery periods were allowed following each distension.

small intestinal transit = assay: Small Intestinal Transit Rodent Model (charcoal meal); type: in vivo, rat; conditions: for Small intestinal transit, Mean (% of total length): 15 min test period
Experimental: Following an overnight fast, rats were brought to the laboratory in their home cages and received an i.p. injection of one of the following: […] Control rats received no treatment. The treated rats were placed back in the home cages and after 30 min, were fed a 2 mL charcoal meal via an oral gavage. Small intestinal transit was measured following 15 min test-period. Each rat was placed briefly in a glass chamber with IsoFlo for anesthesia and sacrificed. The stomach and the small intestine were removed and the total length of the small intestine was measured. Transit was then measured as the distance that the charcoal meal had traveled along the small intestine and expressed as % of the total length. Animals were randomly assigned to experimental groups and experiments were performed as illustrated in Table 11. Small intestinal transit in rats was investigated by the passage of a charcoal meal along the small intestine during a defined time period (15-min). The animals were deprived of food for 12-16 hrs prior to the experiments. Rats were given a charcoal meal (a mixture of charcoal, gum arabic, and distilled water) as a 2 mL oral gavage and were sacrificed after a 15-min test period. The distance traveled by the charcoal meal was quantified as a percent of the small intestinal length, using the following equation: Transit (%)=cm traveled by meal/cm total small intestinal length×100 […]

[2] = test system: stress-induced accelerated colonic transit; assay: Water avoidance stress (WAS) model of increased colonic transit, fecal pellet output; type: in vivo, rat
Excerpt: At the end of the 1-hour stress period, the fecal pellets were counted and recorded. WAS causes an acceleration of colonic transit, which can be quantified by counting the number of fecal pellets, produced during the stress procedure. Rats were placed for 1-hour into a stress chamber onto a raised platform 7.5 cm×7.5 cm×9 cm (L×W×H) in the center of a stress chamber filled with room temperature water 8 cm in depth. The stress chamber was constructed from a rectangular plastic tub (40.2×60.2×31.2 cm). […] Ondansetron was supplied from APIN Chemicals LTD. […] MCI-225 was provided by Mitsubishi Pharma Corp. All drugs were dissolved in a vehicle of 100% propylene glycol (1,2-propanediol) by sonicating for a period of 10 minutes. Propylene glycol was obtained from Sigma Chemical Co. […] All drugs and the vehicle were administered as an i.p. injection in a volume of 0.2 mL.

[3] = test system: retching and vomiting induced by cisplatin; assay: Cisplatin-induced emesis in the ferret; type: in vivo, ferret (Mustela putorius furo)
Experimental: Following administration of the cisplatin and either MCI-225, ondansetron or vehicle alone, the occurrence of retching and vomiting was monitored for a period of 6 hours. […] Vomiting was defined as the forceful oral expulsion of upper gastrointestinal contents. The latency of the retching or vomiting response and the number of episodes were recorded for each animal and summarized for each experimental group (Wright et al., Infect. […] Following one hour of acclimation to the observation cage, ferrets received an intraperitoneal (i.p.) injection of cisplatin (5 mg/kg in 5 mL) followed in about 2 minutes by i.p. injection of a single dose of MCI-225 or ondansetron (Rudd and Naylor, Eur. J. Pharmacol., 322: 79-82 (1997)). […] Each animal received a single-dose drug treatment. In addition, three animals received an initial dose (30 mg/kg i.p.) and a second MCI-225 injection (30 mg/kg i.p.) 180 minutes following the initial dose. […] All groups were randomized.

Compound: CNCCC(Oc1ccccc1OC)c1ccccc1 (stereo not drawn) [Nisoxetine]
- Behavior in the home cage during the experiments ([1]; 30 mg/kg i.p.): increased exploratory behavior
- Visceromotor response to colorectal distension ([1]; 3, 10 or 30 mg/kg i.p.): no significant effect
- Small intestinal transit, Mean (% of total length) (small intestinal transit; 3 mg/kg i.p.): 40.3%
- Small intestinal transit, Mean (% of total length) (small intestinal transit; 10 mg/kg i.p.): 38.6%
- Charcoal meal completely retained in the stomach (small intestinal transit; 30 mg/kg i.p.): 4 out of 5
- Effect on small intestinal transit (small intestinal transit; 30 mg/kg i.p.): almost completely inhibited the transit
- Small intestinal transit, Mean (% of total length) (small intestinal transit; 30 mg/kg i.p.): 4.7%
- Effect on small intestinal transit (small intestinal transit; 3 or 10 mg/kg i.p.): tendency to decrease
- WAS-induced fecal pellet output during 1 hour ([2]; 3, 10 or 30 mg/kg i.p.): reduced by all doses
- Fecal pellets produced during WAS compared to the vehicle treated group ([2]; 10 and 30 mg/kg i.p.): significantly fewer

Compound: Cc1nccn1CC1CCc2c(c3ccccc3n2C)C1=O (stereo not drawn) [Ondansetron, reference compound]
- Responses to moderate (30 mmHg) and high (60 mmHg) intraluminal pressure ([1]; 10 mg/kg i.p.): did not abolish the responses
- Behavioral activity of the rats ([1]; 1, 5 or 10 mg/kg i.p.): No significant changes
- Number of abdominal contractions (visceromotor response) ([1]; 1, 5 or 10 mg/kg i.p., 15, 30, 60 mmHg): dose-dependent decrease
- Small intestinal transit, Mean (% of total length) (small intestinal transit; 1 mg/kg i.p.): 27.6%
- Small intestinal transit, Mean (% of total length) (small intestinal transit; 5 mg/kg i.p.): 32.1%
- Small intestinal transit, Mean (% of total length) (small intestinal transit; 10 mg/kg i.p.): 18.4%
- Effect on small intestinal transit (small intestinal transit; 1, 5 or 10 mg/kg i.p.): significant reduction
- Stress-induced fecal pellet output during 1 hour of WAS ([2]; 1, 5 and 10 mg/kg i.p.): dose-dependent inhibition
- Number of emetic events induced by cisplatin ([3]; 5 mg/kg and 10 mg/kg i.p.): dose-dependently reduced
- Latency ([3]; 5 mg/kg i.p.): 288 ± 4 min
- Retches (360 min) ([3]; 5 mg/kg i.p.): 11.2 ± 7.0
- Total Events ([3]; 5 mg/kg i.p.): 11.5 ± 7.2
- Vomits (360 min) ([3]; 5 mg/kg i.p.): 0.3 ± 0.2
- Latency ([3]; 10 mg/kg i.p.): 313 ± 32 min
- Retches (360 min) ([3]; 10 mg/kg i.p.): 2.4 ± 1.6
- Total Events ([3]; 10 mg/kg i.p.): 2.4 ± 1.6
- Vomits (360 min) ([3]; 10 mg/kg i.p.): 0.0 ± 0.0
